Reference: the NIST ThermoML archive (doi:10.1021/je050175u)

Experiment: excess molar enthalpy (molar enthalpy of mixing); xn = mol fraction of the nth substance listed
Conditions: Liquid, Flow calorimetry

COC(C)=O [methyl ethanoate] + CCCO
excess molar enthalpy [kcal/mol]
Conditions | 298.15 K | 333.15 K
5000 kPa, x1 = 0.051 | 0.0748 | –
5000 kPa, x1 = 0.099 | 0.143 | –
5000 kPa, x1 = 0.149 | 0.201 | –
5000 kPa, x1 = 0.199 | 0.248 | –
5000 kPa, x1 = 0.251 | 0.287 | –
5000 kPa, x1 = 0.3 | 0.316 | –
5000 kPa, x1 = 0.349 | 0.338 | –
5000 kPa, x1 = 0.4 | 0.354 | –
5000 kPa, x1 = 0.451 | 0.363 | –
5000 kPa, x1 = 0.501 | 0.364 | –
5000 kPa, x1 = 0.551 | 0.358 | –
5000 kPa, x1 = 0.6 | 0.347 | –
5000 kPa, x1 = 0.65 | 0.33 | –
5000 kPa, x1 = 0.701 | 0.305 | –
5000 kPa, x1 = 0.749 | 0.273 | –
5000 kPa, x1 = 0.8 | 0.236 | –
5000 kPa, x1 = 0.85 | 0.191 | –
5000 kPa, x1 = 0.899 | 0.136 | –
5000 kPa, x1 = 0.951 | 0.0711 | –
10000 kPa, x1 = 0.051 | 0.0813 | 0.0961
10000 kPa, x1 = 0.099 | 0.145 | 0.168
10000 kPa, x1 = 0.149 | 0.202 | –
10000 kPa, x1 = 0.15 | – | 0.232
10000 kPa, x1 = 0.199 | 0.248 | –
10000 kPa, x1 = 0.2 | – | 0.287
10000 kPa, x1 = 0.25 | 0.287 | 0.329
10000 kPa, x1 = 0.3 | 0.316 | 0.363
10000 kPa, x1 = 0.349 | 0.337 | –
10000 kPa, x1 = 0.35 | – | 0.389
10000 kPa, x1 = 0.399 | 0.353 | 0.408
10000 kPa, x1 = 0.448 | – | 0.418
10000 kPa, x1 = 0.45 | 0.361 | –
10000 kPa, x1 = 0.5 | 0.362 | 0.422
10000 kPa, x1 = 0.548 | – | 0.419
10000 kPa, x1 = 0.55 | 0.357 | –
10000 kPa, x1 = 0.599 | 0.346 | 0.405
10000 kPa, x1 = 0.649 | 0.33 | –
10000 kPa, x1 = 0.65 | – | 0.384
10000 kPa, x1 = 0.7 | 0.305 | 0.355
10000 kPa, x1 = 0.749 | 0.274 | –
10000 kPa, x1 = 0.751 | – | 0.317
10000 kPa, x1 = 0.799 | 0.237 | –
10000 kPa, x1 = 0.801 | – | 0.271
10000 kPa, x1 = 0.849 | 0.189 | –
10000 kPa, x1 = 0.85 | – | 0.215
10000 kPa, x1 = 0.899 | 0.135 | 0.15
10000 kPa, x1 = 0.949 | – | 0.0751
10000 kPa, x1 = 0.951 | 0.0683 | –
